ChEMBL document CHEMBL5346930, “Discovery of novel N-benzylarylamide-dithiocarbamate based derivatives as dual inhibitors of tubulin polymerization and LSD1 that inhibit gastric cancers” (Eur J Med Chem, 2023)
Activity calls are given as the source filed them. No cut-off for these calls is given here.

Key:
SGC-7901 [1] = assay: Induction of cell cycle arrest in human SGC-7901 cells assessed as accumulation of cells at G2/M phase incubated for 48 hrs; type: functional, cell-based; conditions: dose 0-30 nmol/L
[2] = target: Lysine-specific histone demethylase 1A (Homo sapiens, UniProt O60341); assay: Inhibition of LSD1 in human SGC-7901 cells assessed as increase in H3K9me1/2 expression level at 0 to 30 nmol/L incubated for 48 hrs by Western blot analysis; type: cell-based; conditions: dose 0-30 nmol/L
SGC-7901 [3] = assay: Induction of apoptosis in human SGC-7901 cells assessed as increase in cleaved caspase-7 level at 0 to 30 nmol/L incubated for 48 hrs by Western blot analysis; type: functional, cell-based; conditions: dose 0-30 nmol/L
ECa-109 cell line = assay: Antiproliferative activity against human EC109 cells assessed as inhibition of cell growth incubated for 48 hrs by MTT assay; type: functional, cell-based; conditions: ECa-109, 48 h
[4] = target: Tubulin beta (Homo sapiens) (UniProt P68371+Q9H4B7+Q13509+P04350+Q3ZCM7+P07437+Q13885+Q9BVA1+Q9BUF5+A6NNZ2); assay: Binding affinity to colchicine binding site of beta-tubulin in human SGC-7901 cells assessed as inhibition of beta-tubulin alkylation by measuring disappearance of beta-tubulin-EBI adduct band pretreated for 2 hrs followed by EBI addition and measured after 2 hrs by Western blot analysis; type: cell-based; conditions: dose 0-10 µM, time 4.0 hrs
MGC-803 [5] = assay: Antitumor activity against human MGC-803 cells xenografted in BALB/c nude mouse assessed as reduction in tumor volume at 25 mg/kg/day, ip administered every day for 21 days; type: functional, organism-based; conditions: time 21.0 day
NCI-H520 = assay: Antiproliferative activity against human NCI-H520 cells assessed as inhibition of cell growth incubated for 48 hrs by MTT assay; type: functional, cell-based; conditions: NCI-H520, 48 h
MGC-803 [6] = assay: Induction of apoptosis in human MGC-803 cells assessed as increase in total apoptotic cells incubated for 48 hrs by Annexin-FITC/PI staining based flow cytometry analysis; type: functional, cell-based; conditions: dose 0-24 nmol/L
MGC-803 [7] = assay: Induction of apoptosis in human MGC-803 cells assessed as downregulation of Bcl-2 protein expression incubated for 48 hrs by Western blot analysis; type: functional, cell-based; conditions: dose 0-24 nmol/L
MGC-803 [8] = assay: Induction of apoptosis in human MGC-803 cells assessed as increase in cleaved caspase-3 level at 0 to 24 nmol/L incubated for 48 hrs by Western blot analysis; type: functional, cell-based; conditions: dose 0-24 nmol/L
DU-145 = assay: Antiproliferative activity against human DU-145 cells assessed as inhibition of cell growth incubated for 48 hrs by MTT assay; type: functional, cell-based; conditions: DU-145, 48 h
SGC-7901 [9] = assay: Induction of apoptosis in human SGC-7901 cells assessed as total apoptotic cells at 30 nmol/L incubated for 48 hrs by Annexin-FITC/PI staining based flow cytometry analysis (reference value: 5.9%); type: functional
MGC-803 [10] = assay: Antiproliferative activity against human MGC-803 cells assessed as inhibition of cell growth at 10 to 30 nM by MTT assay; type: functional, cell-based; conditions: dose 10-30 nM, time 0-60 hrs, TDE = time-dependent effect
SGC-7901 [11] = assay: Induction of morphological changes in human SGC-7901 cells assessed as appearance of bright and shrunken nucleus at 0 to 30 nmol/L incubated for 48 hrs by DAPI staining based analysis; type: functional, cell-based; conditions: dose 0-30 nmol/L
MGC-803 [12] = assay: Induction of cell cycle arrest in human MGC-803 cells assessed as accumulation of cells at G2/M phase at 24 nmol/L incubated for 48 hrs (reference value: 33%); type: functional

inhibition [2]: Active
Activity [4]: Dose-Dependent Effect
IC50 (NCI-H520): 22.5 nM
IC50 (DU-145): 49.9 nM
SMILES: COc1ccc(CN(C(=O)CSC(=S)N2CCN(c3ccc(N)cc3)CC2)c2cc(OC)c(OC)c(OC)c2)cc1O
Activity (SGC-7901 [1]): Dose-Dependent Effect
Activity (SGC-7901 [3]): Active
IC50 (ECa-109 cell line): 114 nM
Activity (MGC-803 [5]): Active
Activity (MGC-803 [6]): Dose-Dependent Effect
Activity (MGC-803 [7]): Dose-Dependent Effect
Activity (MGC-803 [8]): Active
Activity (SGC-7901 [9]): 75.4%
Activity (MGC-803 [10]): Tde
Activity (SGC-7901 [11]): Active
Activity (MGC-803 [12]): 60%
